This note sets out measurements from patent US20100204202A1, “DRUG FOR ALLEVIATING MOTOR COMPLICATIONS OR PSYCHIATRIC SYMPTOMS OF PARKINSON'S DISEASE” (Asubio Pharma Co., Ltd., priority 2007, published 2010).

A short description of data set [1]: Solubility (choice of solvent). It is filed as physicochemical. To be noted: physiological saline. How it is done:
Note that the SUN […] was subcutaneously administered right before levodopa administration, the sarizotan was orally administered about 20 minutes before levodopa dosage in accordance with above-mentioned known reports (Bibbiani F. et al., Neurology, 2001, 57, p. 1829-1834), and the Example Compound 4 of Japanese Patent Publication No. 2005-298402A was subcutaneously administered about 30 minutes before levodopa dosage in accordance with the above-mentioned Japanese Patent Publication No. 2005-298402A. Further, for the solvent, for SUN […] and Example Compound 4 of Japanese Patent Publication No. 2005-298402A, physiological saline was used.

Data set [2] addresses T1, rat serotonin 1A receptors (Rattus norvegicus, UniProt P19327).
T1 construct: Each rat was decapitated and the hippocampus was quickly removed; from tissue; host or cells: hippocampus of male Wistar rats
T1 sequence (P19327 1-422): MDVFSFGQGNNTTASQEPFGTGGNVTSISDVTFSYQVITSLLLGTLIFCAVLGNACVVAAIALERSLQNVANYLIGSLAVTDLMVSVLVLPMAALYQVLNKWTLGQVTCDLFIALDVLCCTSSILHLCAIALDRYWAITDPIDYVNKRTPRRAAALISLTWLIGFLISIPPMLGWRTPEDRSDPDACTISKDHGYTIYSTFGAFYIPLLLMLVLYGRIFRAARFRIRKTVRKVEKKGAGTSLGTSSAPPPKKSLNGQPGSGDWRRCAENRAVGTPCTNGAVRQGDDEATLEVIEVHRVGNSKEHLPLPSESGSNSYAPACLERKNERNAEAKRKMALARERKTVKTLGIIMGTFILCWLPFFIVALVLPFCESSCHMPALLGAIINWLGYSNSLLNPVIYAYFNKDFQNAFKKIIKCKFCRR
Nature of the data set: Adenylate cyclase inhibition test via rat serotonin 1A receptors (full agonist-partial agonist judgment test), rat hippocampus membranes. It is filed as biochemical. As for the experimental part: For the test, Wistar male rats supplied by Shimizu Laboratory Supplies were used (9 to 15 weeks old). Each rat was decapitated and the hippocampus was quickly removed. It was homogenized in 10 volumes of buffer (i.e., 25 mM Tris-HCl, 1 mM EGTA, 5 mM EDTA, 5 mM DTT, 300 mM sucrose, 100 KIU/ml aprotinin, pH 7.4). This was then centrifuged at 500×g, 4° C. for 5 minutes, the supernatant was further centrifuged at 39,000×g, 4° C. for 10 minutes, and the residue was used as the rat hippocampus membrane specimen. The rat hippocampus membrane specimen was diluted by a buffer to 20 to 90 μg/mL of protein, then 50 μL of this cell membrane suspension was added to a 200 μL assay buffer containing each test sample (25 mM Tris-HCl, 100 mM NaCl, 2 mM MgCl2. 0.25 mM ATP, 5 mM phosphocreatine, 10 μg/mL creatine phosphokinase, 0.2 mM IBMX, 10 μM GTP, 10 μM forskolin, pH 7.4) and allowed to react at 30° C. for 5 minutes. 0.2N HCl was added in 250 μL to stop the reaction, then the cAMP produced was assayed by the radioimmunoassay method. […] Note that the adenylate cyclase activity was measured using as an indicator the amount of cAMP produced by the same enzyme. The rate of inhibition by the serotonin 1A receptor agonist was found using the amount of production due to forskolin (10 μM) stimulus as 100%.

Data set [3] is described as follows: Rate of biological utilization of SUN N4057 in rats. It is filed as in vivo, rat. How it is done: Note that the rate of biological utilization of SUN N4057 in the rats, with subcutaneous administration, was a good one of about 100%, but with intraperitoneal administration, was a low one of about 27%. Further, it became clear that this quickly was consumed peaking at 15 minutes after administration. For this reason, in intraperitoneal administration, a higher dosage was set than with subcutaneous administration.

For data set [4], the system named is Parkinson's disease model rats. Nature of the data set: Rate of incidence of rotational behavior induced by levodopa dosage (response failure). It is filed as in vivo, rat. The settings on record: sustained subcutaneous administration (osmotic pump) from week 6 of repeated levodopa, 2 weeks. As for the experimental part:
Therefore, the inventors prepared Parkinson's disease model rats in the same way as in Example 4 and treated the rats by repeated doses of levodopa (twice a day, Monday to Friday) for 7 weeks. The presence or absence of the rotational behavior of each rat was recorded at approximately 1 hour after the administration of levodopa during the repeated dosing period. […] Therefore, from weeks 1 to 5 of repeated doses of levodopa, the inventors recorded the presence of any rotational behavior of the rats each time, then studied the effects of the tested substances from week 6 of repeated doses of levodopa by implanting an Aizet® osmotic pump filled with SUN N4057 or physiological saline (2ML4, volume 2 ml, flow rate 2.5 μl/hr) subcutaneously at the rats. In the 2 weeks after that, the inventors similarly continued to record the presence of any rotational behavior of the rats 1 hour after levodopa administration.

The test system of data set [5] is rats. Briefly: Forced swimming method (anti-depressive action). Type of data set: in vivo, rat. The source says:
For the test, Crl: CD(SD) male rats supplied by Charles River Japan were used (6 weeks old at start of test). For the forced swimming test, the method of the improved type reported by Lucki et al. (Lucki I., “The forced swimming test as a model for core and component behavioral effects of antidepressant drugs”, Behavioural Pharmacology, 1997, 8, p. 523-532; Cryan J. F. et al., “Assessing antidepressant activity in rodents: recent developments and future needs”, TRENDS in Pharmacological Sciences, 2002, 23, p. 238-245) was used. On day 1, each rat was placed in a cylinder filled with water (height 45 cm×diameter 30 cm, water depth 30 cm, water temperature 23° C., water depth set to depth by which back legs and tail of rat will not touch the bottom). The rat was taken out after 15 minutes. At this time, the immobility period (seconds) of minutes 10-15 (5 minutes) was recorded. Based on the results, the rats were assigned to five groups so that there would be no difference among the groups. On day 2, each rat was placed in a cylinder filled with water the same as day 1 and the immobility period (seconds), swimming behavior period (seconds), and climbing behavior period (seconds) of minutes 0-5 (5 minutes) were measured. Note that the immobility period was defined as the minimum extent of movement for the rat to hold its head above the water, the swimming behavior as the swimming behavior circling around the inside of the cylinder in the horizontal direction, and the climbing behavior as the climbing behavior moving the forelimbs in the vertical direction along the cylinder walls to try to climb them. The tested substance was intraperitoneally administered 15 minutes after the end of swimming on day 1, and 4 hours and 30 minutes before swimming on day 2. Further, for the amount of locomotor activity, a measuring system (shape 48.8×48.8×30 cm, vertical 8 fractions, horizontal 8 fractions, for total of 64 fractions, Biomedica) set in a blacked out soundproof box was used to record the amount of locomotor activity of the rats at minutes 0-15 (15 minutes). Note that the dosages and timings of administration of the tested substances were set in the same way as the forced swimming test and the substance were intraperitoneally administered 24 hours, 4 hours, and 30 minutes before measurement of the amount of locomotor activity.

Where a name gives a salt, the structure may show the parent alone.

Regarding `Cl.Cl.Fc1ccc(-c2cncc(CNC[C@H]3CCc4ccccc4O3)c2)cc1` [Sarizotan, 1-[(2R)-3,4-dihydro-2H-chromen-2-yl]-N-{[5-(4-fluorophenyl)pyridin-3-yl]methyl}methanamine dihydrochloride], the “solubility (in words)” value in data set [1] was “poor in solubility”.

Usually IC50 stands for the concentration at which inhibition is half-maximal. On to `O=C1c2ccccc2OC=C(Cl)N1CCCCN1CC=C(c2ccccn2)CC1` [SUN N4057, 3-chloro-4,5-dihydro-4-{4-[4-(2-pyridyl)-1,2,3,6-tetrahydropyridin-1-yl]butyl}-1,4-benzoxazepin-5-one.dihydrochloride-dihydrate], for which the concentration for half-maximal inhibition (IC50) in data set [2] (forskolin (10 μM) stimulated, rat hippocampus membranes, read-out: IC50 of adenylate cyclase inhibition (for the maximum reaction)) came to 2.67 nM. The inhibition in data set [2] (forskolin (10 μM) stimulus = 100%, rat hippocampus membranes, read-out: maximum inhibitory reaction of adenylate cyclase activity) came to 20%. Further, in data set [2] (serotonin 1A receptors of the serotonin nerve post-synapse membrane), the “full agonist-partial agonist judgment” value is listed as “partial agonist”. Further, in data set [3] (intraperitoneal administration), the “rate of biological utilization” value was “about 27%” and the “time of peak after administration” value was 15 min. Further, in data set [3] (subcutaneous administration), the “rate of biological utilization” value was “about 100%”. In data set [4], the “rate of incidence of rotational behavior” value is “action on recovery”. Besides, the immobility period entry in data set [5] (0.3, 1 and 3 mg/kg i.p., minutes 0-5 on day 2) is on record as “significant shortening of the immobility period”. For the same compound, the swimming behavior period result in data set [5] (1, 3 mg/kg i.p.) is on record as “significant increase”.
